Experimental findings from patent publication US4939138A, “2- and 3-aminomethyl-6-arylcarbonyl-2,3-dihydropyrrolo(1,2,3-DE)-1,4-benzoxazin es” (Sterling Drug Inc., priority 1989, dated 1990) are described below.

One assay has as its system mouse vas deferens. Nature of the assay: mouse vas deferens adrenergic transmission test (MVD). The settings on record: for IC50: concentration producing 50% of the maximum response; for MVD percent inhibition: 10 μM. From the text:
(§1) The test procedures used to determine the analgesic activities of the compounds have been described in detail in the prior art and are as follows: The acetylcholine-induced abdominal constriction test, which is a primary analgesic screening test designed to measure the ability of a test agent to suppress acetylcholine-induced abdominal constriction in mice, described by Collier et al., Brit. J. Pharmacol. Chemotherap. 32, 295 (1968); a modification of the anti-bradykinin test, which is also a primary analgesic screening procedure, described by Berkowitz et al., J. Pharmacol. Exptl Therap. 177, 500-508 (1971), Blane et al., J. Pharm. Pharmacol 19, 367-373 (1967), Botha et al., Eur. J. Pharmacol. 6, 312-321 (1969) and Deffenu et al., J. Pharm. Pharmacol. 18, 135 (1966); the rat paw flexion test, described by Kuzuna et al., Chem. Pharm. Bull., 23, 1184-1191 (1975), Winter et al., J. Pharm. Exptl. Therap., 211, 678-685 (1979) and Capetola et al., J. Pharm. Exptl. Therap. 214, 16-23 (1980); and the mouse vas deferens adrenergic transmission test, described by Henderson et al., Brit. J. Pharmacol., 46, 764-766 (1972).
As before, the compounds are identified by the example number above where their preparations are described.

The next assay relates to cyclooxygenase. Nature of the assay: inhibition of cyclooxygenase assay (CO). In kind it is biochemical, mice. As for the experimental part:
(§2) In order to further detail the analgesic profiles of the compounds of the invention, their activities in the inhibition of acetic acid-induced writhing assay in the rat, the inhibition of cyclooxygenase assay and a modification of the Randall-Selitto analgesic test were also determined The test procedure used to determine the inhibition of acetic acid-inducedwrithing in the rat is described as follows.
The test procedure used to determine cyclooxygenase inhibitory activity is described as follows.
Male mice were decapitated and stomach and brain (cerebral cortex, hypothalamus and medulla) were rapidly dissected over ice. The brains were homogenized in 3 volumes of ice cold 0.1 M potassium phosphate buffer, pH 7.4 containing 10 mM EDTA and 1% BSA (w/v). The homogenate was centrifuged at 10,000 xg for 15 minutes. The resulting supernatant was decanted and centrifuged at 100,000 xg for 60 minutes yielding a crude microsomal pellet. The pellet was washed superficially three times in 3 volumes of 0.1 M potassium phosphate buffer before final resuspension in 1.5 volumes of 0.1 M potassium phosphate buffer containing 1 mM norepinephrine and 1 mM reduced glutathione. The microsomes (50 μl) were preincubated with 50 μl of indomethacin (0.3 μM), test compound or norepinephrine/glutathione-containing buffer for 5 minutes at room temperature. The enzyme reaction was initiated by the addition of 50 μl of ^14 C arachidonic acid to yield a final concentration of 10 μM. After a further incubation of 15 minutes at 37° C., the reaction was stopped by the addition of 50 μl of 4M formic acid. Blank values were determined by using microsomes boiled for 5 minutes but otherwise were treated similarly. The ^14 C-labelled material was extracted 3 times with 0.5 ml of ethyl acetate with intermediate centrifugations at 500 xg for 5 minutes to clarify the aqueous and organic phases. This procedure extracted >95% of the ^14 C-labelled materials. The ethyl acetate washes were added to tubes containing 5 μg each of PGE2, PGF2, PGD2, and 10 μg PGI2 in 25 μl of ethanol. The mixture was evaporated to dryness under nitrogen and the residue dissolved in 150 μl of chloroform:methanol (2:1). This solution was spotted on 5×20 cm silica gel plates and chromatographed with an ethyl acetate, trimethylpentane, acetic acid and water mixture (110:50:20:100 by volume) prepared by shaking the solvents and separating and discarding the organic phase. The prostaglandins were visualized in iodine vapor, the various spots were scraped, and the ^14 C-labelled prostaglandins quantitated by liquid scintillation spectroscopy in 10 ml of BIOFLUOR® or FLUORODYNE®.
(§3) In the acetylcholine-induced abdominal constriction test, the test compounds were administered either as suspensions in gum tragacanth (GT) or as aqueous solutions prepared by addition of just sufficient dilute aqueous methanesulfonic acid (MS) or dilute aqueous lactic acid (LA) to dissolve the compound The compounds are identified by the example number above where their preparations are described All data in the anti-bradykinin, rat writhing and Randall-Selitto tests were obtained on oral administration.

Assay [1] has as its system acetylcholine-induced abdominal constriction. Nature of the assay: acetylcholine-induced abdominal constriction test (ACH). The format is in vivo, mice. The conditions noted are these: for ED50: Mus musculus.
Excerpt: as §1, §3

The test system of assay [2] is acetic acid-induced writhing. Nature of the assay: inhibition of acetic acid-induced writhing in the rat (RW). The format is in vivo, rat (male Sprague Dawley). The settings on record: oral; for ED50: Rattus norvegicus. As for the experimental part: as §2
Male Sprague Dawley rats (Taconic Farms) weighing between 160 and 200g were treated in a random and blind fashion with 1% gum tragacanth vehicle or test agent suspended or dissolved in 1% gum tragacanth. Rats were individually housed in plastic cages (28×18×12 cm) throughout the experiment. Forty-five minutes after drug treatment, 0.5 ml of 9% (w/v) acetic acid was administered intraperitoneally, and animals were returned to their cages for 10 minutes. Writhing is not normally seen during this 10 minute period. Each animal was then observed for a writhing response during a subsequent 10 minute interval (55-65 minutes post-drug treatment). A writhing response was defined as arching of the back with extension of the hindlimbs and contraction of abdominal muscles. […] Data were expressed as percent inhibition of the mean number of writhes in the vehicle treated control group. Data were evaluated for statistical significance by Dunnett's test, and ED50 's for inhibition of acetic acid-induced writhing were determined by the graded dose-response analysis of Tallarida and Murray, Manual of Pharmacologic Calculations with Computer Programs, Springer Verlag, New York (1981).
as §3

The mark [3] stands for this setting: 30 μM, negative values = increases over controls, not demonstrated to differ significantly.
The mark [4] stands for this setting: p.o., dose level 100, aqueous methanesulfonic acid (MS).
The mark [5] stands for this setting: p.o., dose level 100, suspension in gum tragacanth (GT).

Consider `COc1ccc(C(=O)c2c(C)n3c4c(cccc24)OCC3CN2CCOCC2)cc1` (single isomer, unassigned; (+)) [2H(d)], for which the half-inhibitory concentration (IC50) with mouse vas deferens was found to be 44 ± 13 nM.
Regarding `Cc1c(C(=O)c2ccc3ncccc3c2)c2cccc3c2n1C(CN1CCOCC1)CO3` (stereo not shown) [Example 1C], inhibition in the assay with mouse vas deferens was half-maximal at 21 ± 0.65 nM (IC50). For the same molecule, in the assay with cyclooxygenase (setting [3]), the “CO percent inhibition (% I)” value was -26.2%. In addition, the ED50 in assay [1] (iv) turned out to be 1.8 mg/kg; in assay [1] (po, vehicle not given), 27 mg/kg; in assay [2], 3.5 mg/kg. Also, the ACH percent inhibition in assay [1] (s.c., dose level 100, suspension in gum tragacanth (GT)) was determined as 0%.
Molecule “(-)-3-(4-morpholinylmethyl)-5-methyl-6-(5,7-dibromonaphthylcarbonyl)-2,3-dihydropyrrolo[1,2,3-de]-1,4-benzoxazine methanesulfonate [Example 1E]” had an IC50 in the assay on mouse vas deferens of 2620 ± 1700 nM.
`Cc1c(C(=O)c2cccc3ccccc23)c2cccc3c2n1CC(CN1CCOCC1)O3` (stereo not shown) [Example 2I, 2-(4-morpholinylmethyl)-5-methyl-6-(1-naphthylcarbonyl-2,3-dihydropyrrolo1,2,3-de]-1,4-benzoxazine]: inhibition with mouse vas deferens was half-maximal at 4 ± 2 nM (IC50).
`CS(=O)(=O)O.Cc1c(C(=O)c2cccc3ccccc23)c2cccc3c2n1C(CN1CCOCC1)CO3` (single isomer, unassigned; (-)) [2B(1), (-)-3-(4-morpholinylmethyl)-5-methyl-6-(1-naphthylcarbonyl)-2,3-dihydropyrrolo[1,2,3-de]-1,4-benzoxazine methanesulfonate]: the MVD percent inhibition in the assay with mouse vas deferens was 37%. Moreover, the half-inhibitory concentration (IC50) in the assay on mouse vas deferens (methanesulfonate) is above 10000 nM. The “CO percent inhibition (% I)” value with cyclooxygenase (100 μM) was determined as 10.4%. Further, the ACH percent inhibition is 20% in assay [1] (i.v., dose level 0.3); 40% in assay [1] (i.v., dose level 1); 10% in assay [1] (i.v., dose level 3); 30% in assay [1] (i.v., dose level 5.5); 10% in assay [1] (p.o., dose level 10, aqueous methanesulfonic acid (MS)); 10% in assay [1] (p.o., dose level 30, aqueous methanesulfonic acid (MS)). Besides, the ACH percent inhibition was 10% in assay [1] (setting [4]) and 30% in assay [1] (p.o., dose level 173, aqueous methanesulfonic acid (MS)). Also, the RW percent inhibition in assay [2] (dose level 100) worked out at 12%.
`Cc1c(C(=O)c2cccc3ccccc23)c2cccc3c2n1C(CN1CCOCC1)CO3` (stereo not shown) [1B (CH3 SO3 H), 3-(4-morpholinylmethyl)-5-methyl-6-(1-naphthylcarbonyl)-2,3-dihydropyrrolo1,2,3-de]-1,4-benzoxazine methanesulfonate]: the midpoint of inhibition with mouse vas deferens, the IC50, lay at 6 ± 0.6 nM.
In turn, `Cc1c(C(=O)c2cccc3ccccc23)c2cccc3c2n1C(CN1CCOCC1)CO3` (single isomer, unassigned; (+)) [2B(d), (+)-3-(4-morpholinylmethyl)-5-methyl-6-(1-naphthylcarbonyl)-2,3-dihydropyrrolo1,2,3-de]-1,4-benzoxazine methanesulfonate] showed an IC50 with mouse vas deferens of 0.43 ± 0.1 nM. Besides, the “CO percent inhibition (% I)” value in the assay on cyclooxygenase (100 μM) is reported as 9%. Besides, the ED50 in assay [1] (iv) stood at 0.027 mg/kg; in assay [1] (po, aqueous methanesulfonic acid (MS)), 33 mg/kg; in assay [2] it was 7.5 mg/kg.
For the molecule `Cc1c(C(=O)c2cccc3c(Br)cc(Br)cc23)c2cccc3c2n1C(CN1CCOCC1)CO3` (single isomer, unassigned; (+)) [Example 2G, (+)-3-(4-morpholinylmethyl)-5-methyl-6-(5,7-dibromo-1-naphthylcarbonyl)-2,3-dihydropyrrolo[1,2,3-de]-1,4-benzoxazine], half-maximal inhibition in the assay with mouse vas deferens (IC50) required 40 ± 5.4 nM.
Take `O=C(c1cccc2ccccc12)c1cn2c3c(cccc13)OCC2CN1CCOCC1` (stereo not shown) [Example 2F]: in the assay with mouse vas deferens, the IC50 was 2 ± 0.03 nM. The same molecule gave an ACH percent inhibition in assay [1] (setting [5]) of 10%.
The molecule `CS(=O)(=O)O.Cc1c(C(=O)c2ccccc2F)c2cccc3c2n1C(CN1CCOCC1)CO3` (stereo not shown) [Example 2D, 3-(4-morpholinylmethyl)-5-methyl-6-(2-fluorobenzoyl)-2,3-dihydropyrrolo[1,2,3-de]-1,4-benzoxazine methanesulfonate] came in with an IC50 with mouse vas deferens of 76 ± 4 nM. The ED50 in assay [1] (iv) came out at 2 mg/kg. In addition, the ACH percent inhibition in assay [1] (setting [4]) is 30%.
`Cc1c(C(=O)c2cccc3ccccc23)c2cccc3c2n1C(CN1CCOCC1)CO3` (stereo not shown) [1B (base)] came in with an IC50 in the assay on mouse vas deferens of 4 ± 2 nM.
`COc1ccc(C(=O)c2cn3c4c(cccc24)OCC3CN2CCOCC2)cc1` (stereo not shown) [Example 2C, 3-(4-morpholinylmethyl)-6-(4-methoxybenzoyl)-2,3-dihydropyrrolo[1,2,3-de]-1,4-benzoxazine]: in the assay with mouse vas deferens, the IC50 worked out at 44 ± 9.8 nM. The “CO percent inhibition (% I)” value in the assay on cyclooxygenase (setting [3]) is listed as -8.9%. Moreover, the ED50 in assay [1] (iv) was 3.9 mg/kg. In assay [1] (setting [5]), this molecule displayed an ACH percent inhibition of 30%.
In the assay with mouse vas deferens, `CCc1c(C(=O)c2ccc(OC)cc2)c2cccc3c2n1C(CN1CCOCC1)CO3` (stereo not shown) [Example 2A, 3-(4-morpholinylmethyl)-5-ethyl-6-(4-methoxybenzoyl)-2,3-dihydropyrrolo[1,2,3-de]-1,4-benzoxazine] showed an MVD percent inhibition of 27% and an IC50 above 10000 nM. For the same molecule, in assay [1] (setting [5]), the ACH percent inhibition came out at 20%.
Regarding `CS(=O)(=O)O.Cc1c(C(=O)c2ccc(Br)c3ccccc23)c2cccc3c2n1C(CN1CCOCC1)CO3` (stereo not shown) [Example 2E, 3-(4-morpholinylmethyl)-5-methyl-6-(4-bromo-1-naphthylcarbonyl)-2,3-dihydropyrrolo[1,2,3-de]-1,4-benzoxazine methanesulfonate], in the assay with mouse vas deferens, half-maximal inhibition (IC50) required 2.2 ± 0.2 nM. Further, the ACH percent inhibition in assay [1] (p.o., dose level 100, aqueous lactic acid (LA)) turned out to be 0%; in assay [1] (setting [5]), 35%.
In the assay with mouse vas deferens, `COc1ccc(C(=O)c2c(C)n3c4c(cccc24)OCC3CN2CCOCC2)cc1` (single isomer, unassigned; (-)) [2H(1), (-)-3-(4-morpholinylmethyl)-5-methyl-6-(4-methoxybenzoyl) -2,3-dihydropyrrolo[1,2,3-de]-1,4-benzoxazine] displayed an MVD percent inhibition of 44% and an IC50 above 10000 nM.
